The record followed here is PubChem BioAssay AID1259411 (Chemical Carcinogenesis Research Information System (CCRIS), 2018).

This data set has as its system rodent carcinogenicity bioassays, tumor incidence. In words: CCRIS carcinogenicity studies. A digest of the protocol:
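NCI-built, expert-reviewed records of carcinogenicity and related test outcomes (mutagenicity, tumor promotion/inhibition) compiled from published and report sources, historical span 1985-2011, not updated.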

Active and inactive are the calls of the source. No rule for the calls is given here.

`CN(C)/N=N/c1nc[nH]c1C(N)=O`: the carcinogen call runs as follows: (Species: RAT, Strain/Sex: BUFFALO/FEMALE, Route: ORAL, Dose: 0, 500, MG/KG IN DIET FOR 11 WK, Dose: 0, 500, MG/KG IN DIET FOR 11 WK, Tumor Site: Type of Lesion: MAMMARY GLAND: ADENOCARCINOMA, THYMUS GLAND: LYMPHOSARCOMA) “active; positive”; (Species: RAT, Strain/Sex: SPRAGUE-DAWLEY/FEMALE, Route: INTRAPERITONEAL, Dose: 0, 100, 250, 400 MG/RAT IN CITRATE-MANNITOL SOLN, Dose: 0, 100, 250, 400 MG/RAT IN CITRATE-MANNITOL SOLN, Tumor Site: Type of Lesion: MAMMARY GLAND: ADENOCARCINOMA) “active; positive”; (Species: RAT, Strain/Sex: SPRAGUE-DAWLEY/FEMALE, Route: ORAL, Dose: 346, 574, 740 MG/KG (TOTAL DOSE), Dose: 346, 574, 740 MG/KG (TOTAL DOSE), Tumor Site: Type of Lesion: MAMMARY GLAND: ADENOCARCINOMA, CARCINOMA, ADENOFIBROMA, THYMUS GLAND: LYMPHOSARCOMA, SPLEEN: LYMPHOSARCOMA, BRAIN: EPEND, Tumor Site: Type of Lesion: MAMMARY GLAND: ADENOCARCINOMA, CARCINOMA, ADENOFIBROMA, THYMUS GLAND: LYMPHOSARCOMA, SPLEEN: LYMPHOSARCOMA, BRAIN: EPEND) “active; positive”; (Species: RAT, Strain/Sex: SPRAGUE-DAWLEY/MALE, Route: ORAL, Dose: 608, 974 MG/KG (TOTAL DOSE), Tumor Site: Type of Lesion: MAMMARY GLAND: ADENOCARCINOMA, THYMUS GLAND: LYMPHOSARCOMA, SPLEEN: LYMPHOSARCOMA, Tumor Site: Type of Lesion: MAMMARY GLAND: ADENOCARCINOMA, THYMUS GLAND: LYMPHOSARCOMA, SPLEEN: LYMPHOSARCOMA) “active; positive”.
In the case of `NCCNc1cccc2ccccc12`, the carcinogen call was “inactive; negative” (Species: MOUSE, Strain/Sex: B6C3F1/FEMALE, Route: ORAL, Dose: 0, 0.2, 0.3% OF DIET, TWA FOR HIGH DOSE, Dose: 0, 0.2, 0.3% OF DIET, TWA FOR HIGH DOSE); “inactive; negative” (Species: MOUSE, Strain/Sex: B6C3F1/MALE, Route: ORAL, Dose: 0, 0.05, 0.1% OF DIET, Dose: 0, 0.05, 0.1% OF DIET); “inactive; negative” (Species: RAT, Strain/Sex: F344/FEMALE, Route: ORAL, Dose: 0, 0.05, 0.1% OF DIET, Dose: 0, 0.05, 0.1% OF DIET); “inactive; negative” (Species: RAT, Strain/Sex: F344/MALE, Route: ORAL, Dose: 0, 0.05, 0.1% OF DIET, Dose: 0, 0.05, 0.1% OF DIET).
With `OC1c2nc3c(ccc4ccccc43)cc2C2OC2C1O` (stereo not given), the carcinogen call is, setting by setting: (Species: MOUSE, Strain/Sex: SWISS/FEMALE, Route: INTRAPERITONEAL, Dose: 0, 1.05 UMOL GIVEN AS 150 NMOL IN 5 µL DMSO WITHIN 24 HR OF BIRTH, 300 NMOL IN 10 µL DMSO ON D 8 OF LIFE, AND 600 NMOL I) “inactive; negative”; (Species: MOUSE, Strain/Sex: SWISS/MALE, Route: INTRAPERITONEAL, Dose: 0, 1.05 UMOL GIVEN AS 150 NMOL IN 5 µL DMSO WITHIN 24 HR OF BIRTH, 300 NMOL IN 10 µL DMSO ON D 8 OF LIFE, AND 600 NMOL I) “inactive; negative”.
Take `CCSCCC(N)C(=O)O` (stereo not given): the carcinogen call by setting is: (Species: RAT, Strain/Sex: F344/MALE, Route: ORAL, Dose: 0, 0.05% IN METHYL-DEFICIENT DIET FOR 8 MO, STUDY DURATION: 20 MO, Dose: 0, 0.05% IN METHYL-DEFICIENT DIET FOR 8 MO, STUDY DURATION: 20 MO, Tumor Site: Type of Lesion: LIVER: HEPATOCELLULAR CARCINOMA) “active; positive”; (Species: RAT, Strain/Sex: F344/MALE, Route: ORAL, Dose: 0.25% IN DIET FOR 24 WK, Tumor Site: Type of Lesion: LIVER) “active; positive”; (Species: RAT, Strain/Sex: OSBORNE-MENDEL/MALE,FEMALE, Route: ORAL, Dose: 0.25% IN BASAL DIET FOR 8-9 MO, Tumor Site: Type of Lesion: LIVER: CARCINOMA) “active; positive”; (Species: RAT, Strain/Sex: SPRAGUE-DAWLEY, Route: ORAL, Dose: 0.25% IN DIET FOR 8 MO, Tumor Site: Type of Lesion: LIVER: CARCINOMA) “active; positive”; (Species: RAT, Strain/Sex: WISTAR/MALE,FEMALE, Route: ORAL, Dose: 0.25% IN BASAL DIET FOR 8 MO THEN STOCK DIET FOR 2 MO, Tumor Site: Type of Lesion: LIVER: CARCINOMA) “active; positive”.
With `[CH3][Hg][O]C(C)=O`, the carcinogen call (Species: MOUSE, Strain/Sex: SWISS/FEMALE, Route: ORAL, Dose: 0, 5 PPM (HG) IN DRINKING WATER FOR 70 D THEN 1 PPM (HG) FOR DURATION OF STUDY (STUDY DURATION: LIFE SPAN)) was “inactive; negative” and the carcinogen call (Species: MOUSE, Strain/Sex: SWISS/MALE, Route: ORAL, Dose: 0, 5 PPM (HG) IN DRINKING WATER FOR 70 D THEN 1 PPM (HG) FOR DURATION OF STUDY (STUDY DURATION: LIFE SPAN)) was “inactive; negative”.
Take `Fc1cccc2ncccc12`: the carcinogen call (Species: MOUSE, Strain/Sex: CD-1/FEMALE, Route: INTRAPERITONEAL, Dose: 0, 1.75 UMOL/MOUSE (TOTAL DOSE) ADMINISTERED DURING DAYS 1, 8, AND 15 OF LIFE (STUDY DURATION: 52 WK)) was “inactive; negative” and the carcinogen call (Species: MOUSE, Strain/Sex: CD-1/MALE, Route: INTRAPERITONEAL, Dose: 0, 1.75 UMOL/MOUSE (TOTAL DOSE) ADMINISTERED DURING DAYS 1, 8, AND 15 OF LIFE (STUDY DURATION: 52 WK), Tumor Site: Type of Lesion: LIVER: CARCINOMA) is “active; positive”.
`O=c1cc[nH]c(=S)[nH]1`: the carcinogen call (Species: MOUSE, Route: ORAL, Tumor Site: Type of Lesion: LIVER) was “active; positive” and the carcinogen call (Species: RAT, Route: ORAL, Tumor Site: Type of Lesion: THYROID GLAND) is “active; positive”.
Regarding `CNC(=O)Oc1cccc(N=CN(C)C)c1`, the carcinogen call is, setting by setting: (Species: Mouse, Strain/Sex: Crl:CD-1(ICR) BR/Female (50/Group), Route: Oral, Dose: 0, 10, 50, 500 ppm of 95.7% formetanate HCl in diet for 104 wk, study duration 104 wk, Dose: 0, 10, 50, 500 ppm of 95.7% formetanate HCl in diet for 104 wk, study duration 104 wk) “inactive; negative”; (Species: Mouse, Strain/Sex: Crl:CD-1(ICR) BR/Male (50/Group), Route: Oral, Dose: 0, 10, 50, 500 ppm of 95.7% formetanate HCl in diet for 104 wk, study duration 104 wk, Dose: 0, 10, 50, 500 ppm of 95.7% formetanate HCl in diet for 104 wk, study duration 104 wk) “inactive; negative”; (Species: Rat, Strain/Sex: Crl:COBS CD(SD)BR/Female (50/Group), Route: Oral, Dose: 0, 10, 50, 250 ppm of 95.1-96% formetanate HCl in diet for 104 wk, study duration 104 wk, Dose: 0, 10, 50, 250 ppm of 95.1-96% formetanate HCl in diet for 104 wk, study duration 104 wk) “inactive; negative”; (Species: Rat, Strain/Sex: Crl:COBS CD(SD)BR/Male (50/Group), Route: Oral, Dose: 0, 10, 50, 250 ppm of 95.1-96% formetanate HCl in diet for 104 wk, study duration 104 wk, Dose: 0, 10, 50, 250 ppm of 95.1-96% formetanate HCl in diet for 104 wk, study duration 104 wk) “inactive; negative”.
